Measurements taken from US6046168A, “Peptide inhibits blood triglyceride level” (Hankyu-Kyoei Bussan Co., Ltd., priority 1993, dated 2000).
Residues, ends and D or L forms follow the SMILES beside them.

Test system: Healthy albino mice
Experiment: Serum TG elevation inhibiting action at the time of in vivo lipid loading (olive oil)
Conditions: for Ratio of Increase in Blood TG Levels (%): blood collected 3 hours after
Method: Serum TG elevation inhibiting action at the time of in vivo lipid loading was examined on the three peptides of the invention inhibiting elevations of TG levels in blood (i.e., the peptide having the amino acid sequence of SEQ ID NO: 1 and the peptides Val-Thr-Leu and Val-Tyr-Pro synthesized by the method described in Example 4). Healthy albino mice (5-10 weeks old; body weight: about 20-30 g) were used in this experiment. To each mouse, 250 mg of olive oil and an aqueous solution of the above peptide were administered orally. Three hours thereafter, blood was collected under anesthesia with Nembutal. After separation of the blood, the TG level in blood was determined.

CC(C)C[C@H](NC(=O)[C@@H](NC(=O)[C@@H](N)C(C)C)[C@@H](C)O)C(=O)O [Val--Thr--Leu, H-Val-Thr-Leu-OH] (H-Val-Thr-Leu-OH)
Ratio of Increase in Blood TG Levels (%) (dose 0.1 mg/mouse oral with 250 mg olive oil): 30% | Ratio of Increase in Blood TG Levels (%) (dose 0.2 mg/mouse oral with 250 mg olive oil): 33% | Ratio of Increase in Blood TG Levels (%) (dose 1.0 mg/mouse oral with 250 mg olive oil): 73% | Ratio of Increase in Blood TG Levels (%) (dose 2.5 mg/mouse oral with 250 mg olive oil): 76% | Ratio of Increase in Blood TG Levels (%) (dose 5.0 mg/mouse oral with 250 mg olive oil): 79% | ID50: Dose (mg/mouse) exhibiting 50% inhibition (oral, mice loaded with 250 mg olive oil, blood TG after 3 hours): 0.43 mg/mouse | Specific Activity (relative to the proteolysate (= 1), times): 65
